Test results reported in publication PMC11024869, “The activity of antimicrobial peptoids against multidrug-resistant ocular pathogens” (Contact lens & anterior eye : the journal of the British …, 2024).
No end group written: not given here.

Experiments:
Escherichia coli = settings: cited from earlier work
Procedure: (§1) Peptoids act similarly to AMPs as their cationic regions interact electrostatically with the anionic membranes of bacteria and may also facilitate the targeting of intracellular DNA and ribosomal agglutination. […] For example, peptoids can have minimum inhibitory concentrations as low as 1.8 μg mL^−1 against Bacillus subtilis and 12.4 μg mL^−1 against Escherichia coli, whereas these bacteria had MICs of 4.5 μg mL^−1 and 35.6 μg mL^−1, respectively, with the AMP melittin [31] Di-guanidine peptoids, produced via acid amine-coupling between nap ...

Bacillus subtilis = settings: cited from earlier work
Procedure: as §1

Proteinase K = Proteinase K (Parengyodontium album, UniProt P06873)
Chain of Proteinase K (P06873 106-384): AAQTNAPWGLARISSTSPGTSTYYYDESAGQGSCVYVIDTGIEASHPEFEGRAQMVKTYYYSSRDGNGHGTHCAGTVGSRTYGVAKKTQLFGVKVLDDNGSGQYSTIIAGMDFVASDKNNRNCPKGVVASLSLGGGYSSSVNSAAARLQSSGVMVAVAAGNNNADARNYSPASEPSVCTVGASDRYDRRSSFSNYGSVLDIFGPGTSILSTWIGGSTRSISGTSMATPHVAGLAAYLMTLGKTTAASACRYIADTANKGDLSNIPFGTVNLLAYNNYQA
Procedure: (§2) Melimine was used as positive control as it is a cationic antimicrobial peptide that can be hydrolysed by proteases. The Expasy peptide cutter module (https://web.expasy.org/peptide_cutter/) was accessed to predict which proteases might digest melimine. The susceptibility of the antimicrobial compounds to digestion by two proteases expected to digest melimine, Proteinase K (120 unit mL^−1 in 20 mM Tris HCl, pH 7.4; New England Bio Labs, Australia) and Trypsin (10,350 BAFE units/mg in 50 mM borate buffer, pH 8.5; Thermo Scientific products, Australia), was tested. The peptoids and melimine were incubated with each protease at the ratio (w/w) of 1:100 in PBS (pH 7.4) for 24 h at 37 °C. After incubation, the peptoid/melimine + protease solutions were tested for their activity against P. aeruginosa 216 which was grown overnight in TSB at 37 °C. Bacterial cells were washed three times in PBS and then resuspended in MHB OD660nm of 0.1 (equal to 1x10^8 CFU mL^−1. The bacterial suspension was then diluted in MHB to a final working concentration of 5x10^6 cells mL^−1. The diluted bacterial suspension was subsequently added to the wells containing the peptoids/melimine + protease solution and incubated for 24 h at 37 °C. Peptoids/melimine solutions alone (no proteases) were used as a positive control, while protease solutions without the peptoids/melimine were used as a negative control. Post incubation, to inhibit the activity of the proteases, the bacterial suspensions were heated at 55 °C for 10 min in a water bath. After the heating step, the absorbance of the suspensions was measured at OD660nm.

Trypsin = biological target: T1, Trypsin (Bos taurus, UniProt P00760)
T1 sequence (P00760 24-246): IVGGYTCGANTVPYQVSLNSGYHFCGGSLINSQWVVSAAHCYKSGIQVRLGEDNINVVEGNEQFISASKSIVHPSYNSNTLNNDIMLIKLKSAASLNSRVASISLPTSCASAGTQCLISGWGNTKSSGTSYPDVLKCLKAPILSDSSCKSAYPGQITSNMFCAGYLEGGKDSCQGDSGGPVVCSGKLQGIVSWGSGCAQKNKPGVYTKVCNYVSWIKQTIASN
Procedure: as §2

[1] = incubated with protease at ratio (w/w) 1:100 in PBS pH 7.4, 24 h 37 °C, then P aeruginosa 216 in MHB 24 h 37 °C, OD660nm
[2] = result in words, 24 h 37 °C, P. aeruginosa 216

Substance | MIC (Escherichia coli) [µg/mL] | MIC (Bacillus subtilis) [µg/mL] | MIC after Proteinase K (Proteinase K; [1]) | antimicrobial activity after digestion with proteinase K (Proteinase K; [2]) | MIC after Trypsin (Trypsin; [1]) | antimicrobial activity after digestion with trypsin (Trypsin; [2])
melittin: the AMP melittin | 35.6 | 4.5 | – | – | – | –
TLISWIKNKRKQRPRVSRRRRRRGGRRRR [Melimine, reference compound] | – | – | >250 (66) μg mL^−1 | lost all of its antimicrobial activity | >250 (66) μg mL^−1 | lost all of its antimicrobial activity
